From US9670482B2, “Multispecific peptides” (BICYCLE THERAPEUTICS LIMITED, priority 2009, dated 2017)
Read-outs that look alike come from different tables or passages of the source. Residues, ends and D or L forms follow the SMILES beside them. No end group written: not given here.

Key:
HCT116 cells = assay: Live cell imaging of peptide uptake, HCT116; type: cell-based, Human; conditions: fluorescein-labelled TBMB conjugates, 10 μM
Description: Two cell lines, HeLa and HCT116, were used for these experiments. HeLa is a Human cervix epitheloid carcinoma and HCT116 is a Human colon carcinoma. Both cell types are widely available; for instance, HeLa cells are available from the UK HPA under catalogue number 93021013. HCT116 cells are available from the UK HPA under catalogue number 91091005.
Cells were seeded in Lab-Tek chambered borosilicate coverglass (Nunc). After culturing for 48 hrs (cells reached 40-60% confluency), media was removed and a fresh media supplemented with 10 μM of peptides was added to the cells. Cells were cultivated for a further 3.5 hrs or 24 hrs. At the end of the incubation time cells were washed 3×DMEM and finally resuspended in DMEM complete media supplemented with 10 mM HEPES buffer. Live cell imaging was performed on a laser scanning microscope (LSM 710, Zeiss), differential interference contrast (DIC) and fluorescent images were taken.
The cells were cultured in Dulbecco's Modified Eagle's Medium (DMEM, GIBCO) and supplemented with 10% (v/v) of heat-inactivated fetal bovine serum, 2 mM L-glutamine, 10 U/ml penicillin, and 100 ug/ml streptomycin (DMEM complete media) at 37° C. in a 5% CO2 atmosphere.

[1] = target: bovine serum albumin (BSA) (Bos taurus, UniProt P02769); assay: Fluorescence anisotropy titration with BSA
bovine serum albumin (BSA), sequence (P02769 25-607): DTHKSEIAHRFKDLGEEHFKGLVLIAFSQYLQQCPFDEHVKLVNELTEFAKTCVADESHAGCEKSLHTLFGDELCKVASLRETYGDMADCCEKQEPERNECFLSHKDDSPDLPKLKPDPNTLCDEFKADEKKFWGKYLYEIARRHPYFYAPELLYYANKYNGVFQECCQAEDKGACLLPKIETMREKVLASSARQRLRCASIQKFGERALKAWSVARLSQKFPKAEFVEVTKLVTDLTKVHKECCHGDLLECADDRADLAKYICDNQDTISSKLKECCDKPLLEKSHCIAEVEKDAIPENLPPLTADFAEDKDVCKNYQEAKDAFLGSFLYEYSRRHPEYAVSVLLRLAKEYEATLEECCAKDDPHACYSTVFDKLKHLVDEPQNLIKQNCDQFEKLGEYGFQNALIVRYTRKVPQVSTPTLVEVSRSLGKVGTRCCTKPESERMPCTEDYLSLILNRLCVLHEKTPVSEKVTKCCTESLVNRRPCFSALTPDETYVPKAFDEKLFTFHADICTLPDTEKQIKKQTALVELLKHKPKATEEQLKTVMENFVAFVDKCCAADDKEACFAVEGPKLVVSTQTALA
From the text: For determining the affinity constant (Kd) of a fluorophore to target protein, we chose fluorescence anisotropy titrations.
Excitation was specific for coumarin (328 nm), and emission at 393 nm.
To determine whether a neighbouring group (here, Gly) on Fmoc affects binding to BSA, a similar experiment was run with Fmoc-Gly-OH (Nova Biochem). The intrinsic fluorescing properties of Fmoc were used for the anisotropy experiments.
To determine whether a neighbouring hydrophobic bulky group has an enhancing or adverse effect on BSA binding, Fmoc-Phe-OH was tested as above.
The solid phase resin employed was PAL-PEG-PS from Applied Biosystems. […] All peptides were capped with an N-terminal Fmoc, and a C-terminal amide (NH2). After cleavage, peptides were lyophilised, and solubilised in 5 mL of DMF. 100 μl of this was loaded onto an analytical C18 column using a Waters HPLC, using methanol and water (both in the presence of 0.1% TFA) as solvents. […] The peptide concentration in the cuvette was 200 nM.
Excitation was at 299 nm (to minimise Trp absorption), and emission at 320 nm. Slit widths were at 5 and 12 nm, respectively.
Peptide concentrations were estimated by the absorbance at 299 nm, using the extinction coefficient of 4700/M/cm. Excitation was at 299 nm, and emission was set to 320 nm, at slit widths of 5 and 12 nm, respectively.

[2] = target: Human Serum Albumin (HSA) (Homo sapiens, UniProt P02768); assay: Fluorescence anisotropy titration with HSA; type: binding; conditions: 200 nM fluorophore; Hill equation; Kd cannot be determined accurately
Human Serum Albumin (HSA), sequence (P02768 25-609): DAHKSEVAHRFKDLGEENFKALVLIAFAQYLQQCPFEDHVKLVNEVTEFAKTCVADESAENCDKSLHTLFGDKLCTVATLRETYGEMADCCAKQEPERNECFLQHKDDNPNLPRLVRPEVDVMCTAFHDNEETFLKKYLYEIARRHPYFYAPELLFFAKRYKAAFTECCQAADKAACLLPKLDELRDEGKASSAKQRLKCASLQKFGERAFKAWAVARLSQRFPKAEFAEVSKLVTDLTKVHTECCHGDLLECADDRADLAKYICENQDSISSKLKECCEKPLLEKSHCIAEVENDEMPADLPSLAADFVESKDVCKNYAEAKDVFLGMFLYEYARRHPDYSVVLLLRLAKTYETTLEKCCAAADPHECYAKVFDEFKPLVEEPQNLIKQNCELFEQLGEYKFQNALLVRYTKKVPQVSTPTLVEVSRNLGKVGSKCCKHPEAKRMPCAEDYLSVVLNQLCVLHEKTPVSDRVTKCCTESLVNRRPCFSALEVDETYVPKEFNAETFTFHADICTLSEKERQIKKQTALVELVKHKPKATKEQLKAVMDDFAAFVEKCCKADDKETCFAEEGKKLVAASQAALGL

MDM2 (res 2-125) = target: T1, MDM2 (res 2-125) (Homo sapiens, UniProt Q00987); assay: Fluorescence anisotropy titration with MDM2; type: binding
T1 construct: made in house
T1 sequence (Q00987 2-125): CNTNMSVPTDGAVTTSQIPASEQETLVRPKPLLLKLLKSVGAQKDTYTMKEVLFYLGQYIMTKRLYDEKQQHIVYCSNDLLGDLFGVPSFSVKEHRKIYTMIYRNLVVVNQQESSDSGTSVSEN
Description: Titration experiments were run on a Horiba Jobin Yvon fluorimeter equipped with the Hamilton Microlab titrator controlled by laboratory software. The λex and λem used were 295 nm and 350 nm, respectively. The slit widths for excitation and emission were 5 nm and 15 nm and the integration time 10 s was used for each measurement. The intrinsic fluorescence of tryptophan in peptides 10, 48 was used to measure their binding affinity for MDM2 (res 2-125). The experiments were performed at 23 C.° in PBS, 5 mM DTT. Usually 250 ul of MDM2 (150 uM) was titrated into 1.2 ml of peptide (1 uM). Titration data were analyzed with a standard 1:1 binding model by using the quadratic solution to the equilibrium Kd=[A][B]/[AB]. […] The fitting equation contained an extra term to account for linear drift.
Mdm2 binds the complete PEP48 peptide with good affinity. We now determined whether Mdm2 binding is still functional within the Fmoc-Trp-linker-bicyclic derivative. 250 μL of 18.8 μM Mdm2 (expressed and purified as described in Teufel et al, PNAS 2007) was titrated into 1.2 ml of 500 nM peptide. A strong binding event occurred (Kd<1 μM), however, the data could not be fitted as the Kd was too far below the concentration of peptide employed in the experiment (FIG. 9). Lower concentrations of peptide could not be used due to technical limitations. Accurate determination of dissociation constants of this peptide to Mdm2 will require a better fluorophore than Fmoc (see above), or different methodologies such as isothermal titration calorimetry (ITC).

Solubility in water = type: physicochemical
Kallikrein = target: T2, Kallikrein (Homo sapiens, UniProt P03952); assay: Kallikrein assays (Z-Phe-Arg-amc substrate); type: biochemical
T2 construct: purchased Sigma Aldrich
T2 sequence (P03952 20-638): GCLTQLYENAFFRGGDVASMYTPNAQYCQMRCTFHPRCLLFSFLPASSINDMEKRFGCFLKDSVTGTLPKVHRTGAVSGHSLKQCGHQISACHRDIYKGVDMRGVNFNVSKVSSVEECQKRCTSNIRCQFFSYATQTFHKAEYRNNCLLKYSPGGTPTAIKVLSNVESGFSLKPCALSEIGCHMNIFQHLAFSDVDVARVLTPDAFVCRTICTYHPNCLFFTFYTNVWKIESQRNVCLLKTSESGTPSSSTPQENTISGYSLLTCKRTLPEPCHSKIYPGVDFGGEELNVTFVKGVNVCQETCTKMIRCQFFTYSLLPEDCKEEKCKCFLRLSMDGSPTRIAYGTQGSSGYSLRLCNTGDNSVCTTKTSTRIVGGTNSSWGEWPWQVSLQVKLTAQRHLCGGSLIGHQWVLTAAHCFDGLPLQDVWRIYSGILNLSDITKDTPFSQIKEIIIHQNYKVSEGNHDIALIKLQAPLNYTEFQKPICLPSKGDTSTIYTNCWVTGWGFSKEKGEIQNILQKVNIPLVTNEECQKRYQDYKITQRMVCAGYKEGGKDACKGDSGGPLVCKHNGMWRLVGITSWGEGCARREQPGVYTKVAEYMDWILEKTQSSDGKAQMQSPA
Description: Enzymes were purchased from Sigma Aldrich and substrates from Bachem A G. The assay buffer is composed of 10 mM Tris pH 7.4, 150 mM NaCl, 10 mM MgCl2, 1 mM CaCl2, 0.1% BSA, 0.01% Triton X100 and 5% DMSO. Enzymes are incubated with inhibitors for 30 minutes at RT prior to addition of substrate. All experiments were recorded at 30° C. for 90 minutes.
Assays were performed on a BMG Pherastar plate reader at wavelengths of exc/em 350/450 nm. Kallikrein was bought as a solution of 1080 μg/mL and diluted to a working concentration of 0.3 nM in assay buffer. Substrate Z-Phe-Arg-amc was solubilised at the stock concentration of 10 mM in DMSO and diluted to a working concentration of 300 μM with assay buffer. Inhibitors were solubilised in assay buffer to a stock concentration of 60 μM. 50 μL of each reagent is introduced in wells for a final volume of 150 μL per well. Final concentration of kallikrein in assay is 0.1 nM and substrate is 100 μM.
Final concentrations of inhibitors were: 0.5 nM, 1 nM, 2 nM, 5 nM, 8 nM, 10 nM, 20 nM, 50 nM, 80 nM, 100 nM, 200 nM, 500 nM, 800 nM, 1 μM, 2 μM, 5 μM, 8 μM, 10 μM and 20 μM. The initial rate of the reaction is obtained by plotting fluorescence=f (time) data and by fitting a linear trendline for each concentration of inhibitor. The inhibition curves are obtained by plotting initial rate=f ([I]) and IC50 values can be evaluated.

Question: With “Pep48-D3: SCVRFGWTCDNSWHGCKG with C-terminal DDD (control), N-terminal fluorescein or methoxy-coumarin (SCVRFGWTCDNSWHGCKGDDD; cysteine pairing not given here; also: N-terminal fluorescein or methoxy-coumarin)” as the compound, how does the “cell penetration (fluorescent staining within the cell)” value (HCT116 cells) read?
Answer: The value was “not”.

Question: Which Kd [1] does the source give for `O=C(NC(Cc1ccccc1)C(=O)O)OCC1c2ccccc2-c2ccccc21` (centres unmarked) [Fmoc-Phe-OH] here?
Answer: The Kd was about 100 nM.

Question: What about the Kd [2] of the same compound?
Answer: Its Kd is about 10 nM.

Question: What does the source list for `CC(C)[C@@H]1NC(=O)[C@@H](NC(=O)[C@H](C)NC(=O)CNC(=O)CNC(=O)CNC(=O)[C@H](Cc2c[nH]c3ccccc23)NC(=O)OCC2c3ccccc3-c3ccccc32)CSCc2cc3cc(c2)CSC[C@H](NC(=O)[C@H]([C@@H](C)O)NC(=O)[C@H](Cc2c[nH]c4ccccc24)NC(=O)CNC(=O)[C@H](Cc2ccccc2)NC(=O)[C@H](CCCNC(=N)N)NC1=O)C(=O)N[C@@H](CO)C(=O)N[C@@H](CC(=O)O)C(=O)N[C@@H](CCCNC(=N)N)C(=O)N[C@@H](Cc1ccccc1)C(=O)N[C@@H](CCCNC(=N)N)C(=O)N[C@@H](CC(N)=O)C(=O)N[C@H](C(=O)NCC(N)=O)CSC3` [FmocPEP48L1-PK15L1 bicyclic] (HELM PEPTIDE1{[O=C(OCC1c2ccccc2-c2ccccc21)[*:2]].W.G.G.G.A.C.V.R.F.G.W.T.C.S.D.R.F.R.N.C.G.[am]}|CHEM1{[c1c(C[*:1])cc(C[*:3])cc1C[*:2]]}$PEPTIDE1,CHEM1,7:R3-1:R1|PEPTIDE1,CHEM1,14:R3-1:R2|PEPTIDE1,CHEM1,21:R3-1:R3$$$V2.0)?
Answer: Kd (MDM2 (res 2-125)): < 1000 nM; Kd (MDM2 (res 2-125); read-out: Kd for Mdm2, 18.8 μM Mdm2 titrated into 500 nM peptide, data could not be fitted (FIG. 9)): < 1000 nM; solubility in water (Solubility in water): not well soluble in water; Kd ([1]; Kd for BSA, fluorescence anisotropy in PBS): ~60 nM; IC50 (Kallikrein; IC50 for inhibition of kallikrein activity, 0.1 nM kallikrein, 100 μM substrate, 30° C.): 17000 nM; IC50 (Kallikrein; IC50 for inhibition of kallikrein, preliminary experiment, restated in Example 3): ~17000 nM

Question: Which “cell penetration (fluorescent staining within the cell)” value (HCT116 cells) does the source give for “Pep48-R3: SCVRFGWTCDNSWHGCKG with C-terminal RRR, N-terminal fluorescein or methoxy-coumarin (SCVRFGWTCDNSWHGCKGRRR; cysteine pairing not given here; also: N-terminal fluorescein or methoxy-coumarin)” here?
Answer: Its value is “fluorescent staining within the cell”.

Question: With `CC(C)[C@@H]1NC(=O)[C@@H](NC(=O)[C@@H](N)CO)CSCc2cc3cc(c2)CSC[C@H](NC(=O)[C@H]([C@@H](C)O)NC(=O)[C@H](Cc2c[nH]c4ccccc24)NC(=O)CNC(=O)[C@H](Cc2ccccc2)NC(=O)[C@H](CCCNC(=N)N)NC1=O)C(=O)N[C@@H](CC(=O)O)C(=O)N[C@@H](CC(N)=O)C(=O)N[C@@H](CO)C(=O)N[C@@H](Cc1c[nH]c2ccccc12)C(=O)N[C@@H](Cc1c[nH]cn1)C(=O)NCC(=O)N[C@H](C(=O)N[C@@H](CCCCN)C(=O)NCC(=O)O)CSC3` [PEP48] (HELM PEPTIDE1{S.C.V.R.F.G.W.T.C.D.N.S.W.H.G.C.K.G}|CHEM1{[c1c(C[*:1])cc(C[*:3])cc1C[*:2]]}$PEPTIDE1,CHEM1,2:R3-1:R1|PEPTIDE1,CHEM1,9:R3-1:R2|PEPTIDE1,CHEM1,16:R3-1:R3$$$V2.0) as the compound, how does the Kd (MDM2 (res 2-125)) read?
Answer: Its Kd is 500 to 800 nM.
